Measured values published in patent publication US20260053764A1, “COMPOSITION FOR PREVENTING DETERIORATION IN COGNITIVE FUNCTION AND/OR IMPROVING COGNITIVE FUNCTION” (PHARMA FOODS INTERNATIONAL CO., LTD., priority 2020, published 2026).

Test system: cognitive function of a human
Assay: Cognitrax test in placebo-controlled randomized double-blind clinical tests A and B
Type: in vivo
Parameters: Reaction time / Complex attention / Cognitive flexibility / Social acuity / Non-verbal reasoning / Working memory / Continuous attention / Simple attention: scale not given here
Excerpt: A Cognitrax test is known as such an examination that can assess a plurality of domains or items of cognitive function. The Cognitrax test is a cognitive function examination service practiced on the Web based on the cognitive function examination technique developed by CNS Vital Signs in the United States. In the Cognitrax test, among a total of 10 types of tests, which are verbal memory test, visual memory test, finger tapping test, symbol digit coding test (SDC test), Stroop test, shifting attention test, continuous performance test, perception of emotion test, reasoning test and four part continuous performance test, a test is carried out in accordance with the purpose of the examination to digitize the examination result regarding each of a total of 16 types of items at most, which are neurocognition index, composite memory, verbal memory, visual memory, psychomotor speed, reaction time, complex attention, cognitive flexibility, processing speed, executive function, social acuity, non-verbal reasoning, working memory, continuous attention, simple attention and motor speed.
Two types of placebo-controlled randomized double-blind two-group parallel comparison tests were carried out as clinical tests. […] Specifically, capsules comprising 100 mg of dextrin per capsule were used as the placebo food.
The screening examination was carried out to select 60 subjects for each test (a total of 120 subjects). MMSE (Mini Mental State Examination) is an examination for assessing the degree of progression of dementia or the like based on the score thereof with 30 as the perfect score, wherein dementia is suspected with a score of 23 or lower.
• (1) Japanese male and female at the age of 40 or higher • (2) People aware of reduction in cognitive function • (3) People who can continuously ingest the test food every day for 12 weeks • (4) People with an MMSE score of 24 or higher • (5) People who have received sufficient explanation of the purpose/content of the clinical test, have the ability to give consent, voluntarily applied to participate in the clinical test with sufficient understanding, and gave consent to the participation in the clinical test on paper
The total of 120 subjects were randomly divided into test A active group, test A placebo group, test B active group and test B placebo group with 30 subjects in each group. Each subject of the test A active group ingested two capsules of the active food, each subject of the test A placebo group ingested two capsules of the placebo food, each subject of the test B active group ingested one capsule of the active food and each subject of the test B placebo group ingested one capsule of the placebo food.
Each subject followed the schedule shown in the table below and ingested one or two of the assigned capsules together with water for 12 weeks from two weeks after the initial screening examination. All subjects had no particular instruction during the ingestion period and freely took their meals.
As shown with ● in the test schedule in Table 1, Cognitrax was carried out a total of five times, which are upon screening, before starting test food sample ingestion, after four weeks of ingestion, after eight weeks of ingestion and after twelve weeks of ingestion, and the RBANS neuropsychological test was carried out a total of two times, which are before staring test food ingestion and after twelve weeks of ingestion.

[1] = test A 200 mg, before ingestion
[2] = test A 200 mg, before ingestion, mean ± SD
[3] = test A, after eight weeks of ingestion

SMILES: NCCCC(=O)O [GABA, γ-aminobutyric acid]
- Cognition flexibility: difference between active food and placebo food groups (test A 200 mg, 4 w): 2.1
- Complex attention: difference between active food and placebo food groups (test A 200 mg, 4 w): 0.6
- Composite memory: difference between active food and placebo food groups (test A 200 mg, 4 w): −0.9
- Continuous attention: difference between active food and placebo food groups (test A 200 mg, 4 w): 1.1
- Executive function: difference between active food and placebo food groups (test A 200 mg, 4 w): 2.4
- Motor speed: difference between active food and placebo food groups (test A 200 mg, 4 w): 6.0
- Non-verbal reasoning: difference between active food and placebo food groups (test A 200 mg, 4 w): 4.2
- Processing speed: difference between active food and placebo food groups (test A 200 mg, 4 w): 4.1
- Psychomotor speed: difference between active food and placebo food groups (test A 200 mg, 4 w): 7.1
- Reaction time: difference between active food and placebo food groups (test A 200 mg, 4 w): 5.0
- Simple attention: difference between active food and placebo food groups (test A 200 mg, 4 w): 0.9
- Social acuity: difference between active food and placebo food groups (test A 200 mg, 4 w): −2.2
- Verbal memory: difference between active food and placebo food groups (test A 200 mg, 4 w): 0.2
- Visual memory: difference between active food and placebo food groups (test A 200 mg, 4 w): −1.4
- Working memory: difference between active food and placebo food groups (test A 200 mg, 4 w): 3.0
- Cognitive flexibility (test A 200 mg, 4 w, mean ± SD): 104.4 ± 9.8
- Executive function (test A 200 mg, 4 w, mean ± SD): 104.5 ± 9.8
- Non-verbal reasoning (test A 200 mg, 4 w, mean ± SD): 102.6 ± 9.1
- Reaction time (test A 200 mg, 4 w, mean ± SD): 99.3 ± 0.4
- Simple attention (test A 200 mg, 4 w, mean ± SD): 100.2 ± 10.5
- Social acuity (test A 200 mg, 4 w, mean ± SD): 93.2 ± 18.9
- Working memory (test A 200 mg, 4 w, mean ± SD): 108.5 ± 11.2
- Cognition flexibility: difference between active food and placebo food groups (test A 200 mg, 8 w): 4.6
- Complex attention: difference between active food and placebo food groups (test A 200 mg, 8 w): 1.3
- Composite memory: difference between active food and placebo food groups (test A 200 mg, 8 w): −2.9
- Continuous attention: difference between active food and placebo food groups (test A 200 mg, 8 w): 5.6
- Executive function: difference between active food and placebo food groups (test A 200 mg, 8 w): 4.9
- Motor speed: difference between active food and placebo food groups (test A 200 mg, 8 w): 3.9
- Non-verbal reasoning: difference between active food and placebo food groups (test A 200 mg, 8 w): −2.2
- Processing speed: difference between active food and placebo food groups (test A 200 mg, 8 w): 3.5
- Psychomotor speed: difference between active food and placebo food groups (test A 200 mg, 8 w): 5.2
- Reaction time: difference between active food and placebo food groups (test A 200 mg, 8 w): −0.6
- Simple attention: difference between active food and placebo food groups (test A 200 mg, 8 w): −0.3
- Social acuity: difference between active food and placebo food groups (test A 200 mg, 8 w): −0.3
- Verbal memory: difference between active food and placebo food groups (test A 200 mg, 8 w): −6.3
- Visual memory: difference between active food and placebo food groups (test A 200 mg, 8 w): 1.4
- Working memory: difference between active food and placebo food groups (test A 200 mg, 8 w): 7.2
- Cognitive flexibility (test A 200 mg, 8 w, mean ± SD): 108.2 ± 8.6
- Executive function (test A 200 mg, 8 w, mean ± SD): 108.5 ± 8.6
- Non-verbal reasoning (test A 200 mg, 8 w, mean ± SD): 104.9 ± 12.5
- Reaction time (test A 200 mg, 8 w, mean ± SD): 94.0 ± 21.9
- Simple attention (test A 200 mg, 8 w, mean ± SD): 99.2 ± 14.9
- Social acuity (test A 200 mg, 8 w, mean ± SD): 91.3 ± 20.8
- Working memory (test A 200 mg, 8 w, mean ± SD): 113.4 ± 9.7
- Cognition flexibility: difference between active food and placebo food groups (test A 200 mg, 12 w): 1.4
- Complex attention: difference between active food and placebo food groups (test A 200 mg, 12 w): 1.7
- Composite memory: difference between active food and placebo food groups (test A 200 mg, 12 w): −5.0
- Continuous attention: difference between active food and placebo food groups (test A 200 mg, 12 w): 3.7
- Executive function: difference between active food and placebo food groups (test A 200 mg, 12 w): 1.4
- Motor speed: difference between active food and placebo food groups (test A 200 mg, 12 w): 6.1
- Non-verbal reasoning: difference between active food and placebo food groups (test A 200 mg, 12 w): 6.8
- Processing speed: difference between active food and placebo food groups (test A 200 mg, 12 w): 3.1
- Psychomotor speed: difference between active food and placebo food groups (test A 200 mg, 12 w): 6.4
- Reaction time: difference between active food and placebo food groups (test A 200 mg, 12 w): 5.5
- Simple attention: difference between active food and placebo food groups (test A 200 mg, 12 w): 5.5
- Social acuity: difference between active food and placebo food groups (test A 200 mg, 12 w): −8.0
- Verbal memory: difference between active food and placebo food groups (test A 200 mg, 12 w): −3.1
- Visual memory: difference between active food and placebo food groups (test A 200 mg, 12 w): −4.6
- Working memory: difference between active food and placebo food groups (test A 200 mg, 12 w): 4.2
- Cognitive flexibility (test A 200 mg, 12 w, mean ± SD): 107.5 ± 7.3
- Continuous attention (test A 200 mg, 12 w, mean ± SD): 112.9 ± 8.2
- Reaction time (test A 200 mg, 12 w, mean ± SD): 100.7 ± 10.4
- Simple attention (test A 200 mg, 12 w, mean ± SD): 97.9 ± 17.0
- Social acuity (test A 200 mg, 12 w, mean ± SD): 89.0 ± 23.1
- Cognition flexibility: difference between active food and placebo food groups [1]: 4.4
- Complex attention: difference between active food and placebo food groups [1]: 3.4
- Composite memory: difference between active food and placebo food groups [1]: 5.6
- Continuous attention: difference between active food and placebo food groups [1]: 3.3
- Executive function: difference between active food and placebo food groups [1]: 4.5
- Motor speed: difference between active food and placebo food groups [1]: 6.7
- Non-verbal reasoning: difference between active food and placebo food groups [1]: 3.7
- Processing speed: difference between active food and placebo food groups [1]: 3.6
- Psychomotor speed: difference between active food and placebo food groups [1]: 7.1
- Reaction time: difference between active food and placebo food groups [1]: 4.5
- Simple attention: difference between active food and placebo food groups [1]: 2.2
- Social acuity: difference between active food and placebo food groups [1]: −6.4
- Verbal memory: difference between active food and placebo food groups [1]: 4.6
- Visual memory: difference between active food and placebo food groups [1]: 4.0
- Working memory: difference between active food and placebo food groups [1]: 3.5
- Cognitive flexibility [2]: 102.5 ± 9.4
- Complex attention [2]: 105.6 ± 9.8
- Executive function [2]: 102.8 ± 9.0
- Non-verbal reasoning [2]: 102.4 ± 14.9
- Reaction time [2]: 96.6 ± 14.5
- Simple attention [2]: 97.9 ± 17.4
- Social acuity [2]: 87.9 ± 17.9
- scores regarding continuous attention, GABA group compared to the placebo group [3]: significant improvement
- scores regarding working memory, GABA group compared to the placebo group [3]: significant improvement
- scores regarding reasoning, GABA group compared to the placebo group (test A, after twelve weeks of ingestion): significant improvement
